From ChEMBL document CHEMBL5653615 (J Biol Chem, 2013)

Tests used:
[1] = molecular target: T1, Tyrosine-protein kinase TXK (Homo sapiens) (UniProt P42681); assay: Inhibition of human TXK at 500 nM by HotSpot assay relative to control
T1 sequence (whole entry): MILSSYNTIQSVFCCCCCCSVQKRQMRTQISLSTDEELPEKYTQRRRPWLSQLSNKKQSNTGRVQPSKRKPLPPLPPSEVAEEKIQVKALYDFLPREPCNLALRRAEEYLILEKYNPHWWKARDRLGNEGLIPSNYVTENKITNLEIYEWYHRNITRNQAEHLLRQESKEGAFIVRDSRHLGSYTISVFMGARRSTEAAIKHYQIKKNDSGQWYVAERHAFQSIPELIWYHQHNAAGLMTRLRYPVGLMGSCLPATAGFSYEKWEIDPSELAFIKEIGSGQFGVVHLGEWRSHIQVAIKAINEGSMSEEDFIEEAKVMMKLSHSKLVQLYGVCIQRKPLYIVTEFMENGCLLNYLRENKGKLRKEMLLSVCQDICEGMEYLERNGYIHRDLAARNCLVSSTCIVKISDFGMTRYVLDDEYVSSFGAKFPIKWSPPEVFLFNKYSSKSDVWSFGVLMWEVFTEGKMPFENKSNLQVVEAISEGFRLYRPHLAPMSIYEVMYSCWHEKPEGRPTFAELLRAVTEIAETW

[2] = molecular target: Serine/threonine-protein kinase Nek6 (Homo sapiens) (UniProt Q9HC98); assay: Inhibition of human NEK6 at 500 nM by HotSpot assay relative to control
[3] = molecular target: T2, Muscle, skeletal receptor tyrosine-protein kinase (Homo sapiens) (UniProt O15146); assay: Inhibition of human MUSK at 500 nM by HotSpot assay relative to control
T2 sequence (whole entry): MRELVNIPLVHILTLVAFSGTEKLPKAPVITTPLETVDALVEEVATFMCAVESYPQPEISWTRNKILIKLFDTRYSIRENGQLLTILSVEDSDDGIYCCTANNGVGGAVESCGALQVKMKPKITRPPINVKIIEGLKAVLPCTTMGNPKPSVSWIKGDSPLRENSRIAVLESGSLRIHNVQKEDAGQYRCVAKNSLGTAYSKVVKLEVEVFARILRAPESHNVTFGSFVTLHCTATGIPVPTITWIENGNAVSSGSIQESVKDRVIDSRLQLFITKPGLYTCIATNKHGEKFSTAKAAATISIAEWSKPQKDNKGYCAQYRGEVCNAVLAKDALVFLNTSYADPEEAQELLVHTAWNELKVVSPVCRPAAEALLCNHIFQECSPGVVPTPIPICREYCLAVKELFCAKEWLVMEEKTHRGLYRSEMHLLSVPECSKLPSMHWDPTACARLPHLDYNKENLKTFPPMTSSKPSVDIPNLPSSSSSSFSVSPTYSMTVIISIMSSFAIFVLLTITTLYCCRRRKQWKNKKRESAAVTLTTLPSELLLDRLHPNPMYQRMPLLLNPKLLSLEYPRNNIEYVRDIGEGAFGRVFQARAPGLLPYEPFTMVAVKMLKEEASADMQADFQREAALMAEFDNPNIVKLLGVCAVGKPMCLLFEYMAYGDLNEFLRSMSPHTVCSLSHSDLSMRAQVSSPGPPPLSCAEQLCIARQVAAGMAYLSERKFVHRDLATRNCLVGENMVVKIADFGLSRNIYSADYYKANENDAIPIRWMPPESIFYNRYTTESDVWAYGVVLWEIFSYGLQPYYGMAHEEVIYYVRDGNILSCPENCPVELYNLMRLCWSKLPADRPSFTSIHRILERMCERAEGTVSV

[4] = molecular target: T3, Serine/threonine-protein kinase BRSK1 (Homo sapiens) (UniProt Q8TDC3); assay: Inhibition of human BRSK1 at 500 nM by HotSpot assay relative to control
T3 sequence (whole entry): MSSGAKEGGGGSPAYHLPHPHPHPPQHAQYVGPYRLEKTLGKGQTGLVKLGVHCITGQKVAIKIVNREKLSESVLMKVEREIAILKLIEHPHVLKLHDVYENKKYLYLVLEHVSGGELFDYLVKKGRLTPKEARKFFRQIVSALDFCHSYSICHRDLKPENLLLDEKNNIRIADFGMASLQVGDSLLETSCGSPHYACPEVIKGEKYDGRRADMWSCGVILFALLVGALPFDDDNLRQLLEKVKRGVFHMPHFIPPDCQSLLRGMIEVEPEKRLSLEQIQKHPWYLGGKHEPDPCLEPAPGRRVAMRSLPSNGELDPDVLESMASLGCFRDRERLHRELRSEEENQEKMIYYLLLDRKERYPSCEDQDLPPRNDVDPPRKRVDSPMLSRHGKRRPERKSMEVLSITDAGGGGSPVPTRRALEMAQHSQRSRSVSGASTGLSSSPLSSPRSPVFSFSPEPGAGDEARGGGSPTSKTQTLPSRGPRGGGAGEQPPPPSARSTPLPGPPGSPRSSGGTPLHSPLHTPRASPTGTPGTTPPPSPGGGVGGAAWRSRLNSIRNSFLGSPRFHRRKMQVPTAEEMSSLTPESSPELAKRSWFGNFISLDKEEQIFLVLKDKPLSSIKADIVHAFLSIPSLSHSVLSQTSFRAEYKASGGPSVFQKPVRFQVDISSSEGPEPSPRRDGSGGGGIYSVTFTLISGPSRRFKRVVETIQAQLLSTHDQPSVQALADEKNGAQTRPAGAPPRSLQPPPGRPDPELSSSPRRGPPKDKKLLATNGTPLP

[5] = molecular target: Serine/threonine-protein kinase 26 (Homo sapiens) (UniProt Q9P289); assay: Inhibition of human MST4 at 500 nM by HotSpot assay relative to control
[6] = molecular target: CDK1/Cyclin A (Homo sapiens) (UniProt P06493+P20248); assay: Inhibition of human CDK1/cyclin A at 500 nM by HotSpot assay relative to control; assay type: protein-complex assay
[7] = molecular target: Serine/threonine-protein kinase Chk2 (Homo sapiens) (UniProt O96017); assay: Inhibition of human CHK2 at 500 nM by HotSpot assay relative to control
Serine/threonine-protein kinase Chk2 (Homo sapiens), sequence (O96017 whole entry): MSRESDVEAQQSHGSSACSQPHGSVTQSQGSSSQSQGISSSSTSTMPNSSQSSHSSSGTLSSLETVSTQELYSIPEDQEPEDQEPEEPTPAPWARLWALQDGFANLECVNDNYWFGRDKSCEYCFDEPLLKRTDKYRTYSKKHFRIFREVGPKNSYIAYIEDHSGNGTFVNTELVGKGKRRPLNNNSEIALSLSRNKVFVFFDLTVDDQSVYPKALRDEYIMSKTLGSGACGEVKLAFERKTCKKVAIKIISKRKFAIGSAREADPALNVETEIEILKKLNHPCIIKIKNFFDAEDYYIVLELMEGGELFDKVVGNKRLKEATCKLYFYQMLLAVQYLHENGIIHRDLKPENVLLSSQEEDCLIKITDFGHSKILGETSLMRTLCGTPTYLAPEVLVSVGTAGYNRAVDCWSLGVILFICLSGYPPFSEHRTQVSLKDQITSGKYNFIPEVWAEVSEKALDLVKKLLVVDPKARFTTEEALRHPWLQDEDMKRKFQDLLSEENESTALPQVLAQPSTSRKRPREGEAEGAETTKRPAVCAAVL

CDK1/Cyclin A (Homo sapiens), sequence (P06493 whole entry, looked up): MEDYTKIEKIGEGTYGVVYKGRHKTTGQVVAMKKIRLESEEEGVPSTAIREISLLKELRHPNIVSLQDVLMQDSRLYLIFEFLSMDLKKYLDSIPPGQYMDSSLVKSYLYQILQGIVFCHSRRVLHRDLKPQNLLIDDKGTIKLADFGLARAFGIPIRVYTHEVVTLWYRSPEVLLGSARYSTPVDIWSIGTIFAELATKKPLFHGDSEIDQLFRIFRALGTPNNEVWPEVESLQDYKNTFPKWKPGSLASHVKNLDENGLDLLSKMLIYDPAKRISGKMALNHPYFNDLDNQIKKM
CDK1/Cyclin A (Homo sapiens), sequence (P20248 whole entry, looked up): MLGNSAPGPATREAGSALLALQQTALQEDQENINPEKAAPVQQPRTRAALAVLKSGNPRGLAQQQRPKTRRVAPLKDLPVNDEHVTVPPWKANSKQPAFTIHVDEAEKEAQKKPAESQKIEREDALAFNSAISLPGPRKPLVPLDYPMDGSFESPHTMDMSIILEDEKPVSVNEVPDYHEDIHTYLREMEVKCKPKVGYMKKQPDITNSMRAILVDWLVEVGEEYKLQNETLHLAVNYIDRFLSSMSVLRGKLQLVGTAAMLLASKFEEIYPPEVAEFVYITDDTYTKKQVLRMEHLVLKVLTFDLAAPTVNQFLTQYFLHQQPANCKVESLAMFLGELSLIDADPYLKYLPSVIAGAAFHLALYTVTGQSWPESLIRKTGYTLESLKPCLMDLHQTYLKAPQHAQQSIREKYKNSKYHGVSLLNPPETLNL
Serine/threonine-protein kinase Nek6 (Homo sapiens), sequence (Q9HC98 whole entry): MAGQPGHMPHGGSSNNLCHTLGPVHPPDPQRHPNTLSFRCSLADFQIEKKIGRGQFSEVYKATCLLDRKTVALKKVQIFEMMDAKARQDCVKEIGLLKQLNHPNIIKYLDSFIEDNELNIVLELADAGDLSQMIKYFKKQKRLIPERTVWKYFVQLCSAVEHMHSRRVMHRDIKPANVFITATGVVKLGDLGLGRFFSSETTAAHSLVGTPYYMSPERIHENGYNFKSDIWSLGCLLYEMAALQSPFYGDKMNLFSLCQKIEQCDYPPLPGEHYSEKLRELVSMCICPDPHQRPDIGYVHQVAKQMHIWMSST
Serine/threonine-protein kinase 26 (Homo sapiens), sequence (Q9P289 2-416 limits assumed): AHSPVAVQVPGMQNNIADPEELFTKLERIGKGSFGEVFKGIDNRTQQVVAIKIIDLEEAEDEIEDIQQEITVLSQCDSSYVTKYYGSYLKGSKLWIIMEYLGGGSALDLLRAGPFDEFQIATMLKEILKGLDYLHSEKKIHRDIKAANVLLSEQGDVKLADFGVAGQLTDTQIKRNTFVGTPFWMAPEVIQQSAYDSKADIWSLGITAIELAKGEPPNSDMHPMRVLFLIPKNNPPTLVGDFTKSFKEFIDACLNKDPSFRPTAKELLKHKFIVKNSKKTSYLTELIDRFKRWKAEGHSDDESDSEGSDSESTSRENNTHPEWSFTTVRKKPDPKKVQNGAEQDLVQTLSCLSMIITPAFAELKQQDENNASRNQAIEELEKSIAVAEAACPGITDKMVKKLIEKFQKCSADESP

| Compound | inhibition [1] [%] | inhibition [2] [%] | inhibition [3] [%] | inhibition [4] [%] | inhibition [5] [%] | inhibition [6] [%] | inhibition [7] [%] |
| --- | --- | --- | --- | --- | --- | --- | --- |
| Nc1n[nH]c2nnc(-c3c(-c4ccccc4)nn4ccccc34)cc12 | 11.2 | 4.45 | 3.22 | 1.41 | 24.1 | -0.55 | 2.97 |
| Oc1n[nH]c2nnc(-c3c(-c4ccccc4)nn4ccccc34)cc12 | 2.55 | 3.5 | 3.28 | -2.29 | 3.66 | 0.95 | 1.86 |
